Data on three substances can be found in patent US6495336B1, “Oligopeptide derivatives for the electrochemical measurement of protease activity” (Pentapharm AG, priority 2001, dated 2002).

One data set has as its target T1, thrombin (Homo sapiens, UniProt P00734).
T1 construct: purchased Diagnotec Liestal 100-500
The experiment in a line: Measurement of the enzymic activity of thrombin in solution (amperometric hydrolysis of substrate). The class given is biochemical. Conditions: substrate c = 0.5 mmol, 1 NIH-U of thrombin, 400 mV, HEPES 50 mM pH 7.4, KCl 0.1 M, 25° C. The protocol:
1) A Tacusell PGP201 potentiostat, software VM1, which maintains a constant potential difference between the measuring electrode and reference electrode, is used. The measuring cell used is a glass beaker with a capacity of 25 ml or 1 ml, which can receive the 3 electrodes.
2) A platinum wire with a surface area of 34 mm^2 or 3 mm^2 is used as measuring electrode.
3) A calomel electrode (SCE) is used as reference electrode at which the potentials are measured.
4) The auxiliary electrode consists of platinum wire and serves to ensure passage of the current.
5) The measured solution is stirred by a magnetic stirrer for homogenization.
Thrombin concentration: 0.5, 1.0, 2 NIH-U/ml
Buffer: HEPES buffer, 50 mM, pH 7.4, KCl, 0.1 M
For example a 0.5 mM solution of the substrate Tos-Gly-Pro-Arg 3-chloro-4-hydroxyanilide×AcOH in HEPES buffer is prepared, as is a stock solution of thrombin with 100 NIH-U/1 ml in distilled water. 1 ml of substrate solution (c=0.5 mmol) is introduced into a 1 ml measuring cell provided with 3 electrodes of the Tacusell PGP201 potentiostat, software VM1. A cycle is allowed to run potentiodynamically from −30 to 500 mV to record the zero value (10 min). For the measurement, 10 µl of thrombin solution (final concentration 1.0 NIH-U/ml) is placed in the measuring cell, […], after mixing for 30 sec, the current is recorded potentiostatically over a time of 10 min. The measurements are carried out as duplicate determination.
FIGS. 5, 6 and 7 (μA cm^2/min, T=0-5 min, at 400 mV) show the linear cleavage rates by means of 3 substrates with different electroactive groups at a thrombin concentration of 1 NIH-U and substrate concentration c=0.5 mmol: […]

Data set [1] is described as follows: Cyclic voltammogram of the substrate (electroactivity). It is filed as physicochemical. Conditions: c=0.5 mM in HEPES buffer, pH=7.4, 0.1 M KCl; -30 to 600 mV; 1 ml cell, electrode 3 mm^2. The text has this:
[…] A measurement cycle can take place when the basic current affords sufficient accuracy. The basic current is subtracted from the measurement during the hydrolysis of a substrate or the recording of a profile of an electroactive compound.
2) Evaluation of the results: the currents recorded in the linearity range are, after subtraction of the basic current at the relevant potential, proportional to the concentration of the electroactive species during the hydrolysis. The liberated electroactive species, which is cleaved off by the substrate, is likewise proportional to the enzyme concentration employed.
3) A platinum electrode is used to record the cyclic voltammograms at concentrations of 0.25 mmol, 0.5 mmol and 1.0 mmol. HEPES, 50 mmol at pH 7.4, is used as buffer. FIGS. 1 and 2 show typical cyclic reversible plots for 4-amino-2-chlorophenol and 5-amino-8-hydroxyquinoline: recorded from −30 to 600 mV at 500 mV/min. These amperogenic substances preferably show a linear dependence of the current strength on the concentration at low potential in the region of 300 mV, with a high current strength. The system is in equilibrium in this case. A higher voltage of >400 mV is undesired because of interference with possible constituents in the blood, for example paracetamol. […]

Regarding “H-(D)-Chg-Gly-Arg 3-chloro-4-hydroxyanilide×2 TFA”, the “Standardization: current resulting from hydrolysis of the substrate with thrombin, per cm^2 of electrode surface area in one minute” value on thrombin is recorded as 3 μA/cm^2 of electrode.

Consider “Z-gly-pro-arg 2-chloro-4-hydroxyanilide×HCl”, for which, on thrombin, the “Standardization: current resulting from hydrolysis of the substrate with thrombin, per cm^2 of electrode surface area in one minute” value is 0.5 μA/cm^2 of electrode.

In the case of “Tos-Gly-Pro-Arg 3-chloro-4-hydroxyanilide×AcOH”, the “Standardization: current resulting from hydrolysis of the substrate with thrombin, per cm^2 of electrode surface area in one minute” value on thrombin is given as 2 μA/cm^2 of electrode. The “Electroactivity of the uncleaved substrate at 400 mV” value in data set [1] is on record as “no electroactivity”.
